Assay results published in US7074823B2, “Fluorescent probe for zinc” (Daiichi Pure Chemical Co., Ltd., priority 2000, dated 2006).

Experiments:
[1] = conventional probes, short wavelength excitation light; cited from earlier work
[2] = Changes with time in fluorescence intensity after addition of zinc ion; settings: 5 μM compound, zinc ion 5 μM or 50 μM, 100 mM HEPES pH 7.5
Experimental: Zinc ion (final concentration 5 μM or 50 μM) was added in 100 mM HEPES (pH 7.5) containing 5 μM Compound 6, Compound 12, or ACF-1 (a compound having a cyclic polyamine moiety described as Compound (20) in Example 1 in Japanese Patent Application No. (Hei) 11-40325) to measure fluorescence intensity. The fluorescence intensity was measured at the excitation wavelength of 491 nm and the fluorescence wavelength of 513 nm for Compound 6, the excitation wavelength of 492 nm and the fluorescence wavelength of 514 nm for Compound 12, and the excitation wavelength of 495 nm and the fluorescence wavelength of 515 nm for ACF-1. In the figure, the ordinate axis represents relative fluorescence intensity. […] Accordingly, the use of the compound according to the present invention enables very quick detection of zinc, and also enables the detection of rapid change in the concentration of zinc.

[3] = Changes in fluorescence intensity with relation to pH changes; format: physicochemical; settings: pH of around 7.4 (intracellular pH)
Experimental: Changes in fluorescence intensity of Compound 12, Compound 21, and zinc complexes thereof were investigated with relation to pH changes. The fluorescence intensity was measured at the excitation wavelength of 492 nm and the fluorescence wavelength of 514 nm for Compound 12, and the excitation wavelength of 505 nm and the fluorescence wavelength of 522 nm for Compound 21.
Buffers used are as follows.
100 mM Cl2CHCOOH—Cl2CHCOONa buffer (pH 2.0)
100 mM ClCH2COOH—ClCH2COONa buffer (pH 3.0)
100 mM CHES buffer (pH 8.5)

[4] = Selectivity for zinc ions: fluorescence intensity in buffer containing various metal ions; settings: 1 μM compound
Experimental: Compound 6 obtained in Example 1 and Compound 12 obtained in Example 2 were used to evaluate selectivity for zinc ions. 5 μM of Compound 6 or Compound 12 was added in 100 mM HEPES buffer (pH 7.5) containing various metal ions (5 μM or 5 mM). The fluorescence intensity was measured at the excitation wavelength of 491 nm and the fluorescence wavelength of 513 nm for Compound 6, and the excitation wavelength of 492 nm and the fluorescence wavelength of 514 nm for Compound 12. The results are shown in FIG. 1 (Compound 6) and FIG. 2 (Compound 12). 1 μM of Compound 21 was added in 100 mM HEPES buffer (pH 7.5) containing various metal ions (1 μM or 5 mM), and the fluorescence intensity was measured at the excitation wavelength of 505 nm and the fluorescence wavelength of 522 nm.
In the figures, the fluorescence intensities on the ordinate axis are shown as numerical values with addition of each metal ion relative to the fluorescence intensity without addition of metal ion which is taken as 1.

## COc1cc(NS(=O)(=O)c2ccc(C)cc2)c2ncccc2c1 [TSQ]
[1]
  excitation wavelength: 367 nm

## CN(C)c1cccc2c(S(=O)(=O)NCCN3CCNCCNCCNCC3)cccc12 [Dansylaminoethylcyclen]
[1]
  excitation wavelength: 323 nm

## CN1CCN(C)CCN(c2ccc(-c3c4ccc(=O)cc-4oc4cc(O)ccc34)cc2)CCN(C)CC1 [ACF-1]
[2]
  increase of fluorescence intensity with time after zinc ion addition: not instantly increased

## O=C1C=C2Oc3cc(O)c(Cl)cc3C(c3ccc(NCCN(Cc4ccccn4)Cc4ccccn4)cc3C(=O)O)C2C=C1Cl (centres unmarked) [Compound 21]
[3]
  stability of fluorescence intensity to pH changes: more stable than Compound 12
[4]; 100 mM HEPES buffer pH 7.5, various metal ions 1 μM or 5 mM
  selectivity for zinc: high selectivity
[4]; HEPES pH 7.5
  effect of sodium, potassium, calcium, magnesium on the increase in fluorescence intensity caused by zinc: did not affect
[4]; metal ions at high concentration (5 mM), HEPES pH 7.5
  increase in fluorescence intensity on addition of sodium, potassium, calcium and magnesium: almost no increase

## CCOC(=O)COc1cc(NS(=O)(=O)c2ccc(C)cc2)c2nc(C)ccc2c1 [Zinquin]
[1]
  excitation wavelength: 368 nm
